Laboratory results as given in ChEMBL document CHEMBL5325440, “Design, synthesis, and anti-inflammatory activity characterization of novel brain-permeable HDAC6 inhibitors” (Eur J Med Chem, 2023).
Blank lines part the entries; values can stand above or below the compound they belong to.

Tests used:
[1] = Drug uptake in mouse brain at 3 mg/kg measured at upto 60 mins by PET imaging based analysis; type: ADME, organism-based; details: in vivo, 1 h
[2] = Drug accumulation in mouse heart measured after 5 mins post injection; type: ADME, tissue-based; details: in vivo
[3] = Drug accumulation in mouse liver measured after 5 mins post injection; type: ADME, tissue-based; details: in vivo
[4] = Drug accumulation in mouse kidney measured after 5 mins post injection; type: ADME, tissue-based; details: in vivo
[5] = Drug accumulation in mouse lung measured after 5 mins post injection; type: ADME, tissue-based; details: in vivo
[6] = Drug accumulation in mouse spleen measured after 5 mins post injection; type: ADME, tissue-based; details: in vivo
[7] = Drug accumulation in mouse liver measured after 60 mins post injection; type: ADME, tissue-based; details: in vivo, 1 h
[8] = Drug accumulation in mouse kidney measured after 60 mins post injection; type: ADME, tissue-based; details: in vivo, 1 h
Histone deacetylase 1 = Histone deacetylase 1 (Homo sapiens, UniProt Q13547); assay: Inhibition of HDAC1 (unknown origin)
[9] = molecular target: T1, Protein deacetylase HDAC6 (Homo sapiens, UniProt Q9UBN7); assay: Inhibition of HDAC6 (unknown origin)
T1 sequence (Q9UBN7 whole entry): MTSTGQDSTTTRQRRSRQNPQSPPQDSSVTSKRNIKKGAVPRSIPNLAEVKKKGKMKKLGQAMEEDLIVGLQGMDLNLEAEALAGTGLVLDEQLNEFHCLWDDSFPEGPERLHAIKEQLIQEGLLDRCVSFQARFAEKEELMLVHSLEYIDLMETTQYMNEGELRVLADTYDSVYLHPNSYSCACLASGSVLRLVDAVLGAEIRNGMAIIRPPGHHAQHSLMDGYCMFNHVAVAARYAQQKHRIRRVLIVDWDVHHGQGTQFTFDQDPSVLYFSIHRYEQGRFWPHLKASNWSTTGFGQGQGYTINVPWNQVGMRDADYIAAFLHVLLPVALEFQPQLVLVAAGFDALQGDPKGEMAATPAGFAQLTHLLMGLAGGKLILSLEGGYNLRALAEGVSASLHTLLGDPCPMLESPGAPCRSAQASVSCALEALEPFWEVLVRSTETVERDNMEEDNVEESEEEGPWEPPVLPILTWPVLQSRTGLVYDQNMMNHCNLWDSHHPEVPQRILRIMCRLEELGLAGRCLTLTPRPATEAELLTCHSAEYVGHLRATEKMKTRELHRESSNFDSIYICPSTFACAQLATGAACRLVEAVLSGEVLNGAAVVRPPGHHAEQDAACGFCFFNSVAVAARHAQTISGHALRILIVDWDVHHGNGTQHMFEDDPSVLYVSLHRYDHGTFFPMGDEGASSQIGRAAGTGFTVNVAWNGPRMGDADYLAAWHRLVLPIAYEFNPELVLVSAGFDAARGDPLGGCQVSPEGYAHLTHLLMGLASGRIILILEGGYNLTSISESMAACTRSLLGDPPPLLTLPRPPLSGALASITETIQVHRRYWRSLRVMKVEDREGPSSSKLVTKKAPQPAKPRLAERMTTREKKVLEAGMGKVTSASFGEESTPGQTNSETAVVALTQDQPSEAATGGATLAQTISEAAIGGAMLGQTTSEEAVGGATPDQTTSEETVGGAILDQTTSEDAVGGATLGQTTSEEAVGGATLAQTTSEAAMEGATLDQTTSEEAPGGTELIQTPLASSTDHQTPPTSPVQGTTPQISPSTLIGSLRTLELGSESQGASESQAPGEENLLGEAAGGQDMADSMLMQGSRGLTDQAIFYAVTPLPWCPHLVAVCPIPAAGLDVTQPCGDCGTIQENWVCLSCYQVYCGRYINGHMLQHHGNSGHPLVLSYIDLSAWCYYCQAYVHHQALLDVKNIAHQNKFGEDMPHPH

Histone deacetylase 2 = Histone deacetylase 2 (Homo sapiens, UniProt Q92769); assay: Inhibition of HDAC2 (unknown origin)
Histone deacetylase 3 = Histone deacetylase 3 (Homo sapiens, UniProt O15379); assay: Inhibition of HDAC3 (unknown origin)
Histone deacetylase 4 = Histone deacetylase 4 (Homo sapiens, UniProt P56524); assay: Inhibition of HDAC4 (unknown origin)
Histone deacetylase 5 = Histone deacetylase 5 (Homo sapiens, UniProt Q9UQL6); assay: Inhibition of HDAC5 (unknown origin)
Histone deacetylase 8 = molecular target: T2, Histone deacetylase 8 (Homo sapiens, UniProt Q9BY41); assay: Inhibition of HDAC8 (unknown origin)
T2 sequence (Q9BY41 whole entry): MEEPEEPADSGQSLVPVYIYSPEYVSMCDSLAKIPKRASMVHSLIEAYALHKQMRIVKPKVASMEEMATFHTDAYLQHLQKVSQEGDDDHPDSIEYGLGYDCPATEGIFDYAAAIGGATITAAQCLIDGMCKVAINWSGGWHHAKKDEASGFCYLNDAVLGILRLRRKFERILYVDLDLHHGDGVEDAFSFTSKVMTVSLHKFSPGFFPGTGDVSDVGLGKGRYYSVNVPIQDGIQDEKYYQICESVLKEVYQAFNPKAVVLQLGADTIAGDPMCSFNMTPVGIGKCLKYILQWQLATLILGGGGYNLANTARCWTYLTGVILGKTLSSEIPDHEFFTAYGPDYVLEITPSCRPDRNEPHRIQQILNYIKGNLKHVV

Histone deacetylase 9 = Histone deacetylase 9 (Homo sapiens, UniProt Q9UKV0); assay: Inhibition of HDAC9 (unknown origin)
[10] = molecular target: T3, Polyamine deacetylase HDAC10 (Homo sapiens, UniProt Q969S8); assay: Inhibition of HDAC10 (unknown origin)
T3 sequence (Q969S8 whole entry): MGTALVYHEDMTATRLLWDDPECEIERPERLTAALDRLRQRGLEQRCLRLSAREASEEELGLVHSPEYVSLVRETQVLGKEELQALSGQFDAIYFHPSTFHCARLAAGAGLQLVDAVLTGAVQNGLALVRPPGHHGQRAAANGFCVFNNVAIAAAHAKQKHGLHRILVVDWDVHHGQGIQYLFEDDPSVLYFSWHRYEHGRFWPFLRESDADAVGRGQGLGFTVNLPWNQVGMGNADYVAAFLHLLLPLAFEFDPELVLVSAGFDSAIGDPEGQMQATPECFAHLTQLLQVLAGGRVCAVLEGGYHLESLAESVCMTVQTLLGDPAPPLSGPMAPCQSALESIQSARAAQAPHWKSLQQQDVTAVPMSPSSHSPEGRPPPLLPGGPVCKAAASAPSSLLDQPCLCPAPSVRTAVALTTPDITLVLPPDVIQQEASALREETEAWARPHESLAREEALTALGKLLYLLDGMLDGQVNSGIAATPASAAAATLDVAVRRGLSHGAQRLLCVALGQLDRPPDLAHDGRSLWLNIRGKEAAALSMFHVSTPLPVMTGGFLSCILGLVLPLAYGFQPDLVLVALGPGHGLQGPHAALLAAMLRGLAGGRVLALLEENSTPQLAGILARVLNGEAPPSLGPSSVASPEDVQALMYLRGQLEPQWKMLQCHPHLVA

Histone deacetylase 11 = molecular target: T4, Histone deacetylase 11 (Homo sapiens, UniProt Q96DB2); assay: Inhibition of HDAC11 (unknown origin)
T4 sequence (Q96DB2 whole entry): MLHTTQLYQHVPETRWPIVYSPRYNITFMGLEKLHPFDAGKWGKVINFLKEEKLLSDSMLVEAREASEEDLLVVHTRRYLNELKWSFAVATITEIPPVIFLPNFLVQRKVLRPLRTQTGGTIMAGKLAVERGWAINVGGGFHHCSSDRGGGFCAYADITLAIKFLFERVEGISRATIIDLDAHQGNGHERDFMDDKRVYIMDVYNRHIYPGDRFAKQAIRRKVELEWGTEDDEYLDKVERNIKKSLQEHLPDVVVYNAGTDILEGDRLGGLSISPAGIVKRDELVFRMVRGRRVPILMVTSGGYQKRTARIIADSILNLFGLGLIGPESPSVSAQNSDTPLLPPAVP

[11] = Drug concentration in C57BL/6 mouse brain at 1 mg/kg, ip measured after 0.5 hrs by LC-MS/MS analysis; type: ADME, organism-based; details: read-out: Ct
[12] = Drug concentration in C57BL/6 mouse brain at 1 mg/kg, ip measured after 1 hr by LC-MS/MS analysis; type: ADME, organism-based; details: read-out: Ct
[13] = Drug concentration in C57BL/6 mouse brain at 1 mg/kg, ip measured after 3 hrs by LC-MS/MS analysis; type: ADME, organism-based; details: read-out: Ct
[14] = Drug concentration in C57BL/6 mouse plasma at 1 mg/kg, ip measured after 0.5 hrs by LC-MS/MS analysis; type: ADME, organism-based
[15] = Drug concentration in C57BL/6 mouse plasma at 1 mg/kg, ip measured after 1 hr by LC-MS/MS analysis; type: ADME, organism-based
[16] = Drug concentration in C57BL/6 mouse plasma at 1 mg/kg, ip measured after 3 hrs by LC-MS/MS analysis; type: ADME, organism-based
[17] = Ratio of drug concentration in brain to plasma of C57BL/6 mouse plasma at 1 mg/kg, ip measured after 0.5 hr by LC-MS/MS analysis; type: ADME, organism-based; details: read-out: BPR
[18] = Ratio of drug concentration in brain to plasma of C57BL/6 mouse plasma at 1 mg/kg, ip measured after 1 hr by LC-MS/MS analysis; type: ADME, organism-based; details: read-out: BPR
[19] = Ratio of drug concentration in brain to plasma of C57BL/6 mouse plasma at 1 mg/kg, ip measured after 3 hrs by LC-MS/MS analysis; type: ADME, organism-based; details: read-out: BPR
BV-2 = assay: Cytotoxicity against mouse BV-2 cells at 500 to 1000 nM incubated overnight in presence of LPS by LDH assay; type: toxicity, cell-based; details: bv-2, 1 µM, dose 500-1000 nM

Chain of Histone deacetylase 1 (Q13547 whole entry): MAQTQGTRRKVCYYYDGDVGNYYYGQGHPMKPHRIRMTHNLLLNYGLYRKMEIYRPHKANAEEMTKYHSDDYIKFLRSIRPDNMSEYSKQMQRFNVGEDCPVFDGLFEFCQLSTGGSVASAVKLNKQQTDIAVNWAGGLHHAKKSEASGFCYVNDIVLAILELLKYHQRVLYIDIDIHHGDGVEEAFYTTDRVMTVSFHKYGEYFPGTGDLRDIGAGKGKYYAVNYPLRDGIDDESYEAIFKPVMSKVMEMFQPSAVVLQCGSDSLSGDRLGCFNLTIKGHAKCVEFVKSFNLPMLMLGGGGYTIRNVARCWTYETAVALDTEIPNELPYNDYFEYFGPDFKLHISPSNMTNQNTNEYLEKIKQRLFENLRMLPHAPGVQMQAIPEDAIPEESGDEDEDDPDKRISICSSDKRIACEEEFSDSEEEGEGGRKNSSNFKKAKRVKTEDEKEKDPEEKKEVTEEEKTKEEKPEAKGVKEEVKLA
Chain of Histone deacetylase 4 (P56524 whole entry): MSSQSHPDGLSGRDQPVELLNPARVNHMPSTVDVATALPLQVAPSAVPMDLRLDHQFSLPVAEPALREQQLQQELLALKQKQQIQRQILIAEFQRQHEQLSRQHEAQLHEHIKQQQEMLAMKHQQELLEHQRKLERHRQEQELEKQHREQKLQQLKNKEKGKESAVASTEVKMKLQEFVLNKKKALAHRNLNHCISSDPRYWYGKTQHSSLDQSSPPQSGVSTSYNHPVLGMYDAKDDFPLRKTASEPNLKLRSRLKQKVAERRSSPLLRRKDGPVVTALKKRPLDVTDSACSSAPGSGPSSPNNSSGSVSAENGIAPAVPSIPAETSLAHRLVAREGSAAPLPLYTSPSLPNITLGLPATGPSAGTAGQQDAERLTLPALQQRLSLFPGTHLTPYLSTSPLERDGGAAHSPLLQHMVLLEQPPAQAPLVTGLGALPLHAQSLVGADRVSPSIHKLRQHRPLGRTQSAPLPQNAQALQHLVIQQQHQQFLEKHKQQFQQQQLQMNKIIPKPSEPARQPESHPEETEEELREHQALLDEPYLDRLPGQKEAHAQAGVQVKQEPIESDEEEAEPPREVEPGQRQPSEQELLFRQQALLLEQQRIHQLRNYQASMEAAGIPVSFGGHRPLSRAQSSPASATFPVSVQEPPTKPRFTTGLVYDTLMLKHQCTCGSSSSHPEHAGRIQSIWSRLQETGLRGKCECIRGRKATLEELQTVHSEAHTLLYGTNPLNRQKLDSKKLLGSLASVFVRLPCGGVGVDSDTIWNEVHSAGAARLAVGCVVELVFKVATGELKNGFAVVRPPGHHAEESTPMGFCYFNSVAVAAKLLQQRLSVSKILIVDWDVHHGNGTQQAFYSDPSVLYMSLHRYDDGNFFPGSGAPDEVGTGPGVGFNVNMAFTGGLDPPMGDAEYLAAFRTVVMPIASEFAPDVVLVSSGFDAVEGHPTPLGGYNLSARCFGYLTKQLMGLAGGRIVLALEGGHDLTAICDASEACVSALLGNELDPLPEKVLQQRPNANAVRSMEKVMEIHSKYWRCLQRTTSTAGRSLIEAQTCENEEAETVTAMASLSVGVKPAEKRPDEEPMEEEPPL
Chain of Histone deacetylase 2 (Q92769 whole entry): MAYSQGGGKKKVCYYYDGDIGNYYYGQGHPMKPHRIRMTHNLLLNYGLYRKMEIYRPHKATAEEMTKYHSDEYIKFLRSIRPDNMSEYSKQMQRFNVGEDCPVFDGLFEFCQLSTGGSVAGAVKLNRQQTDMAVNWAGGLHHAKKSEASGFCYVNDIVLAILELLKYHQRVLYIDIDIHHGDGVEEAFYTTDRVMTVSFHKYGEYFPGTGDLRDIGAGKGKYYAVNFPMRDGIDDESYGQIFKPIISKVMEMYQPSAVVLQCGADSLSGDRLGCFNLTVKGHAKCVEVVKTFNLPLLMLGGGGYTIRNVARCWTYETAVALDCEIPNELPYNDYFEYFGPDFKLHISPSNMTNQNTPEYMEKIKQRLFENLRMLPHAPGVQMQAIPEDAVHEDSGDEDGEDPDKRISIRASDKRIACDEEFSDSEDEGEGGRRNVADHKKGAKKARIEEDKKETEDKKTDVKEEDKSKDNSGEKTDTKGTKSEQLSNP
Chain of Histone deacetylase 9 (Q9UKV0 whole entry): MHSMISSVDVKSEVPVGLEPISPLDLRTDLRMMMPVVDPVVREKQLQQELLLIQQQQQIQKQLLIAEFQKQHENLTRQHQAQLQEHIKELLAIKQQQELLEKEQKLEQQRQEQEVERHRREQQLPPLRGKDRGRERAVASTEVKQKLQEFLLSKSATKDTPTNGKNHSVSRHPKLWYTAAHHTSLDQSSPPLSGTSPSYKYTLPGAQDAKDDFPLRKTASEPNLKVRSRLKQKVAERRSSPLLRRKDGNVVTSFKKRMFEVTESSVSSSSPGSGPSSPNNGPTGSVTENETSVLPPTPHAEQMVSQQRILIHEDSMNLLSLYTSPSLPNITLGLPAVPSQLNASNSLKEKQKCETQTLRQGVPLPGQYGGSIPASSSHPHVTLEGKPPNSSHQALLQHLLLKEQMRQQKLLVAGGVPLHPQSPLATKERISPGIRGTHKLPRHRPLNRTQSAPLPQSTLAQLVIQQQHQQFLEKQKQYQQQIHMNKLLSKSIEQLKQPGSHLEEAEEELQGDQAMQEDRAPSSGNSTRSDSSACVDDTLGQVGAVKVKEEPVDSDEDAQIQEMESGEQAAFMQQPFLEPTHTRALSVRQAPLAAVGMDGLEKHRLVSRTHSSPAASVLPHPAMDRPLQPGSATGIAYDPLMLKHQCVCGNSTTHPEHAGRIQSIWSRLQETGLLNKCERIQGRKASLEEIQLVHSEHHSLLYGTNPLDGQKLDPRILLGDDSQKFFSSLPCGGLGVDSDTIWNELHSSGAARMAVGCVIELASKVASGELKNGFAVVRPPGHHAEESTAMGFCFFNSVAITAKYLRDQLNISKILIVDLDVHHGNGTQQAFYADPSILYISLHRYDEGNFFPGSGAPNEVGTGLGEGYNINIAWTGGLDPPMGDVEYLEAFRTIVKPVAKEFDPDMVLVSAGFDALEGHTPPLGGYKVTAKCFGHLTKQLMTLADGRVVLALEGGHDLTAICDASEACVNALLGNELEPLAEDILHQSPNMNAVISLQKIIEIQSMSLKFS
Chain of Histone deacetylase 5 (Q9UQL6 whole entry): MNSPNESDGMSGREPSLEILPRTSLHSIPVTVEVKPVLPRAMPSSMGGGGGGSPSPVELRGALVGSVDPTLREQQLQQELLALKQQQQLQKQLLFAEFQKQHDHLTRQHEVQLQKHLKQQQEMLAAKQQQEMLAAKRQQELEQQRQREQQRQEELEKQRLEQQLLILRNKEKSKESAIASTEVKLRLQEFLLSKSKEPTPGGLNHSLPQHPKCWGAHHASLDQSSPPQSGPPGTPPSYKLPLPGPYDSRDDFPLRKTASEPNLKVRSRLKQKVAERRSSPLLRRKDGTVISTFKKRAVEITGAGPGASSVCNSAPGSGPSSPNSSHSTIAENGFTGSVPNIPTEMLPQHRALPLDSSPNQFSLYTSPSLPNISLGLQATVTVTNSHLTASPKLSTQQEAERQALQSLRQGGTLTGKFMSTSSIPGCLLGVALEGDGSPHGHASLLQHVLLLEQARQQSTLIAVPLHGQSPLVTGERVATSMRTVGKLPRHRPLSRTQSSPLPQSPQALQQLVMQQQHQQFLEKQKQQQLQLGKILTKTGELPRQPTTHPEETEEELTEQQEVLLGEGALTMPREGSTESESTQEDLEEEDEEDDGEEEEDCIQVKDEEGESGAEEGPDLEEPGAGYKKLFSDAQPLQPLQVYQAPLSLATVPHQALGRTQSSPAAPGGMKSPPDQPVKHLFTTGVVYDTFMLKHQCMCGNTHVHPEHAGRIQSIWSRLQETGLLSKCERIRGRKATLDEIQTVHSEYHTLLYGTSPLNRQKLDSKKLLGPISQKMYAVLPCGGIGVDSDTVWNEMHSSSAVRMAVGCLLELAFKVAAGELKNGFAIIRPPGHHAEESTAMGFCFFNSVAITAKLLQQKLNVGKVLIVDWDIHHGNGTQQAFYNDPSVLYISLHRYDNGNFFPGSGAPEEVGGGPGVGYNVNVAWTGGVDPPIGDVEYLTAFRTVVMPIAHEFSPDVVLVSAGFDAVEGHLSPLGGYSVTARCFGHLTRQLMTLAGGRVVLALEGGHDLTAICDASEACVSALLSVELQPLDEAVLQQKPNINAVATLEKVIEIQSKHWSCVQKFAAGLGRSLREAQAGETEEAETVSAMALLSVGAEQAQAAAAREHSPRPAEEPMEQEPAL
Chain of Histone deacetylase 3 (O15379 whole entry): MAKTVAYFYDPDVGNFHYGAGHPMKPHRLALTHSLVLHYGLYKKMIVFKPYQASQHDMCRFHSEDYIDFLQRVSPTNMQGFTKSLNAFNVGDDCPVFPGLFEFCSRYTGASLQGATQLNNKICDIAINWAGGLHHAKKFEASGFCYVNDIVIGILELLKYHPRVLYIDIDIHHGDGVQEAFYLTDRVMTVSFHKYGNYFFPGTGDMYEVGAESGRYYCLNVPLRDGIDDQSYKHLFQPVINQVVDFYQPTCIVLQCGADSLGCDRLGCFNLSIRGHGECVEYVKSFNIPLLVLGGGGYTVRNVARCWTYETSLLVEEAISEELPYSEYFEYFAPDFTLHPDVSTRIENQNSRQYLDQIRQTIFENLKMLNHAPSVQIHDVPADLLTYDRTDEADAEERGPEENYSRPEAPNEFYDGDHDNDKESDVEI

SMILES: O=C(NO)c1ccc(CN2CCCc3cccnc32)c([18F])c1
SUV [1]: 0.6
Drug uptake [2]: > 10 %ID/cc
Drug uptake [3]: > 10 %ID/cc
Drug uptake [4]: > 10 %ID/cc
Drug uptake [5]: Active
Drug uptake [6]: Active
Drug uptake [7]: Active
Drug uptake [8]: Active

SMILES: O=C(NO)c1ccc(CN2CCCc3cccnc32)c(F)c1
IC50 (Histone deacetylase 2): > 10000 nM
IC50 (Histone deacetylase 3): 568 nM
IC50 (Histone deacetylase 4): 578 nM
IC50 (Histone deacetylase 5): 1850 nM
IC50 (Histone deacetylase 8): 597 nM
IC50 (Histone deacetylase 9): 701 nM
IC50 [10]: 269 nM
IC50 (Histone deacetylase 11): 8610 nM
concentration at 0.5 h [11]: 13.2 ng/mL
concentration at 1 h [12]: 6.48 ng/mL
concentration at 3 h [13]: 1.07 ng/mL
concentration at 0.5 h [14]: 6.21 ng/mL
concentration at 1 h [15]: 4.32 ng/mL
concentration at 3 h [16]: 0.82 ng/mL
Kp at 0.5 h [17]: 2.1
Kp at 1 h [18]: 1.5
Kp at 3 h [19]: 1.3
Activity (BV-2): Non-Toxic

SMILES: O=C(NO)c1ccc(CNc2cccc3ccc([18F])nc23)cc1
SUV [1]: 0.35

Further lines, results first:

IC50 (Histone deacetylase 1): 4710 nM
IC50 [9]: 86.1 nM
SMILES: O=C(NO)c1ccc(CNC2CCCc3cccnc32)cc1 (stereo unspecified)

IC50 (Histone deacetylase 1): 5050 nM
IC50 [9]: 63 nM
SMILES: O=C(NO)c1ccc(CNC2CCCc3cccnc32)c(F)c1 (stereo unspecified)
